# Test results reported in patent US12427188B2, “Pyocyanine demethylases and related phenazine degrading agents compositions, methods and systems for interfering with viability of bacteria” (priority 2020, dated 2025).
# Like-named read-outs stand apart in the source and are kept apart here.
# B1: PodA: Pyocyanin demethylase of M. fortuitum, SEQ ID NO: 1; in the ABBA experiments the PodA added was PodA10 (protein, listed as Mycobacterium fortuitum)
# chain: MTGKTKPAIIGGVAITALAAAGLGVWLFTDGRGGRSTTEPVTMTLDVKNDQVAKHDFGKPGMDVGDMDIFSDILSVDGKQVGYDGGACFFTNVTPDNPMTYCELTIHLDAGEIFARSLTPHTLAPFTMAITGGTGEYANSKGELTVSGVATPDEKYELKLTK
# Columns and labels:
# [1] = Redox potential E0' vs. NHE of redox-active compounds; type: physicochemical; conditions: measured in aqueous solution at pH 7 in this study (footnote b)
# [2] = oxidized form; literature values (footnotes a, c, d, e); cited from earlier work
# PA14 = assay: Redox cycling, reduction by and survival support of PA14; type: cell-based, P. aeruginosa
# [3] = copper chelating agent; cited from earlier work
# [4] = system: Pseudomonas aeruginosa aggregate biofilms; assay: PodA and tobramycin agar block biofilm assay (ABBA) synergy experiments; type: cell-based; conditions: for peak PI intensity: PodA10 5 μM, tobramycin 50 μg mL^−1
# Procedure: Pseudomonas aeruginosa PodA and tobramycin agar block biofilm assay (ABBA) synergy experiments. Starter Pseudomonas aeruginosa cultures were grown 24 h at 37° C. shaking in LB and the OD500 was determined by diluting cells 1:10. For inoculation into agar, cells were first diluted to an OD of 1.0, followed by a 1:10 dilution for a final OD of 0.1. Molten LB agar (1% w/v) or SCFM agar (1% w/v, made by mixing premade 2× SCFM and 2% agar) was incubated at 44° C., after which 10 μL of OD 0.1 culture was added and mixed into 1 mL of agar, for a final starting OD of 0.001. A portion of the mixture (200 μL) was pipetted into a well of an 8-well glass chamber slide for microscopy (Thermo Fisher Scientific #155409) or into a 2 mL Eppendorf tube for cell viability experiments. ABBAs were incubated at 37° C. for 24 h in a Tupperware lined with wet paper towels. Following growth, ABBAs were washed with 200 μL of HEPES (20 mM, pH 7) to rid planktonic cells growing on the surface of the agar. Treatment stocks (100 μL each) were made by diluting PodA10 and/or tobramycin into HEPES (final concentration of 20 mM, pH 7), with the no treatment control consisting of solely HEPES. Final concentrations of PodA (5 μM) and tobramycin (50 ug mL^−1) were calculated accounting for the total volume of the agar+liquid. ABBAs were treated overnight (14 h), treatment mixture was decanted, and agar blocks were washed with HEPES (400 μL).
# For microscopy experiments, cells were incubated for 30 min with 125 μL of diluted propidium iodide (final concentration of 490 μM when added to ABBA, taking into account volume of the agar) and SYTO-9 (final concentration of 16 μM), after which 50 μL of a 1:50 dilution of 5-μm fluorescent beads (Spherotech; CFP-5045-2) was added to each agar block. ABBAs were imaged with a Leica TCS SPE confocal microscope as described elsewhere using 512×512-pixel format (29)[44], with the exception of imaging with a 6 μm step-size in the Z-direction.
# For cell viability experiments, 300 μL of HEPES (20 mM, pH 7) was pipetted into each Eppendorf ABBA tube and samples were homogenized on speed 3 of a Bio-Gen PRO200 Homogenizer (PRO Scientific). Samples were briefly spun to rid of air bubbles (<1,000×g) and diluted in series and plated as described above in liquid synergy experiments. Experiments were completed with biological triplicates and was repeated thrice, with a representative figure shown.
# ABBA microscopy image analysis. Images were analyzed in FIJI by re-slicing the data set in the XZ dimension followed by a max-intensity Z-projection. The brightness/contrast was auto-normalized in FIJI to the sample treated with only tobramycin. These LUT values were then applied to the other images in the corresponding data sets. Average pixel intensities along the Z-dimensions were found using the “Plot Profile” function in FIJI.
# To determine mean pixel intensity and aggregate volume of each ABBA, channels 1 (SYTO-9) and 2 (Propidium Iodide) were combined into a single channel using FIJI. Images were analyzed in Imaris and aggregate masks were created using the “surface” module of the software. Using the surface Imaris wizard, all options under algorithm settings were unchecked. For surface channel settings, channel 3 (representing combined channels) was chosen and default settings were maintained. For threshold settings, the no treatment ABBA sample was analyzed for proper data inclusion and a value of 60 was used for all LB samples, with a threshold value of 40 for all SCFM samples. Lastly, data were excluded 0.1 μm from the XY edges, to exclude aggregates that were cut off due to imaging field. Data were not excluded from the top edge of the ABBA, as images were collected from the surface of the agar using fluorescent beads as described above. Exported statistics were used to plot aggregate volume or mean PI intensity against position of aggregates in the Z-dimension. […]
Molecule,"E^0, (vs. NHE) (mV) [2]",Reduction by PA14? (PA14),Support survival? (PA14),# of Redox cycles over 7 days (PA14),other results
"CN(C)c1ccc2nc3ccc(=[N+](C)C)cc-3sc2c1 [Methylene blue (MB), Methylene blue]",+11 mV,Yes,No,3,"E^0, (vs. NHE) (mV) [1]: 0 mV"
"C[n+]1c2ccccc2nc2c([O-])cccc21 [Pyocyanin (PYO), Pyocyanin]",−40^a mV,Yes,Yes,31,–
C[n+]1ccc(-c2cc[n+](C)cc2)cc1 [Paraquat],−446^e mV,No,No,No cycle,–
"O=C(O)c1cccc2nc3ccccc3nc12 [Phenazine-1-carboxylate (PCA), Phenazine-1-carboxylate]",−114 ^a mV,Yes,Yes,22,–
"O=C1c2ccc(S(=O)(=O)O)cc2C(=O)c2ccc(S(=O)(=O)O)cc21 [2,6-AQDS]",−184 ^d mV,Yes (very slowly),No,No cycle,–
"Oc1cccc2nc3ccccc3nc12 [1-Hydroxyphenazine (1-OHPHZ), 1-Hydroxyphenazine]",−174 ^a mV,Yes,Yes,14,log of the equilibrium constant βmlh of binding copper [3]: 8.68
"O=C(O)Cc1cc(O)ccc1O [Homogentisic acid (HMA), Homogentisic acid]",–,–,No,No cycle,"E^0, (vs. NHE) (mV) [1]: +306^b mV"
NC[C@H]1O[C@H](O[C@H]2[C@H](O)[C@@H](O[C@H]3O[C@H](CO)[C@@H](O)[C@H](N)[C@H]3O)[C@H](N)C[C@@H]2N)[C@H](N)C[C@@H]1O [tobramycin],–,–,–,–,"PI staining versus non-treated samples ([4]; LB ABBA, hypoxia/anoxia from around 300 μm): no significant differences; peak PI intensity ([4]; LB): 151.0 AUs; PI staining versus no treatment controls ([4]; SCFM ABBA, all depths): considerably higher than no treatment controls at all depths; peak PI intensity ([4]; SCFM): 22.6 AUs"
B1,–,–,–,–,"outside ring PI staining pattern of aggregates ([4]; LB, XY-plane, versus untreated aggregates): abolished; PI staining at depth ([4]; PodA alone, >300 μm in LB (anoxic zone)): did not significantly change"
